Each block holds one molecule with its values, some of them ahead of it.
Legend:
[1] = target: AKT1 (human) (UniProt P31749); settings: compound 1.0 µM; ATP 100 µM
[2] = target: CHEK1 (human) (UniProt O14757); settings: ATP 100 µM
[3] = target: CSNK2A1 or CSNK2A2 (human) (UniProt P19784+P68400); settings: ATP 100 µM
[4] = target: LCK (human) (UniProt P06239); settings: ATP 100 µM
[5] = tested on: MAP2K1 (rabbit); settings: compound 1.0 µM; accession and sequence are those of the human protein
[6] = target: MAPK11 (human) (UniProt Q15759); settings: ATP 100 µM
[7] = target: MAPK12 (human) (UniProt P53778); settings: ATP 100 µM
[8] = target: MAPK14 (human) (UniProt Q16539); settings: compound 1.0 µM; ATP 100 µM
[9] = target: MAPK8 (human) (UniProt P45983); settings: ATP 100 µM
[10] = target: MAPKAPK2 (human) (UniProt P49137); settings: ATP 100 µM
[11] = target: MAPKAPK5 (human) (UniProt Q8IW41); settings: compound 1.0 µM; ATP 100 µM
[12] = target: MYLK (chicken); settings: accession and sequence are those of the human protein
[13] = target: PDPK1 (human) (UniProt O15530); settings: ATP 100 µM
[14] = tested on: PIK3CG (cow); settings: compound 1.0 µM; accession and sequence are those of the human protein
[15] = target: PRKCA (human) (UniProt P17252); settings: ATP 100 µM
[16] = tested on: ROCK2 (rat); settings: accession and sequence are those of the human protein
[17] = target: RPS6KA5 KD1 KD2 (human) (UniProt O75582); settings: ATP 100 µM
[18] = tested on: RPS6KB1 (human), P23443 [T412E]; settings: ATP 100 µM
[19] = tested on: SGK1 (human), O00141 [S422D]; settings: ATP 100 µM
[20] = tested on: MYLK (chicken); assay: radiometric filter-binding kinase assay; settings: compound 1.0 µM; accession and sequence are those of the human protein
[21] = tested on: MYLK2 (rabbit); assay: radiometric filter-binding kinase assay; settings: compound 1.0 µM; ATP 100 µM; accession and sequence are those of the human protein
[22] = tested on: PHKG1 or PHKG2 (rabbit); assay: radiometric filter-binding kinase assay; settings: compound 1.0 µM; ATP 100 µM; accession and sequence are those of the human protein
[23] = tested on: PRKAA1 or PRKAA2 (rat); assay: radiometric filter-binding kinase assay; settings: compound 1.0 µM; ATP 100 µM; accession and sequence are those of the human protein
[24] = tested on: PRKACA or PRKACB (cow); assay: radiometric filter-binding kinase assay; settings: compound 1.0 µM; accession and sequence are those of the human protein
[25] = tested on: RPS6KA3 KD1 KD2 (rabbit); assay: radiometric filter-binding kinase assay; settings: compound 1.0 µM; ATP 100 µM; accession and sequence are those of the human protein
[26] = tested on: PHKG1 or PHKG2 (rabbit); settings: compound 10.0 µM; accession and sequence are those of the human protein
[27] = target: GSK3B (human) (UniProt P49841); settings: ATP 100 µM
[28] = target: CAMK2A or CAMK2B or CAMK2D or CAMK2G (human) (UniProt Q13555+Q13557+Q9UQM7+Q13554); settings: compound 1.0 µM; ATP 100 µM
[29] = target: MAPK13 (human) (UniProt O15264); settings: ATP 100 µM
[30] = target: MAP2K3 (human) (UniProt P46734); settings: compound 10.0 µM; ATP 100 µM
[31] = target: MAP2K4 (human) (UniProt P45985); settings: compound 10.0 µM; ATP 100 µM
[32] = target: MAP2K6 (human) (UniProt P52564); settings: compound 10.0 µM; ATP 100 µM
[33] = target: MAP2K7 (human) (UniProt O14733); settings: compound 10.0 µM; ATP 100 µM
[34] = tested on: MAPK1 (mouse); settings: compound 10.0 µM; accession and sequence are those of the human protein
[35] = tested on: PRKAA1 or PRKAA2 (rat); settings: compound 10.0 µM; accession and sequence are those of the human protein
[36] = tested on: PRKACA or PRKACB (cow); settings: compound 10.0 µM; accession and sequence are those of the human protein
[37] = tested on: RPS6KA3 KD1 KD2 (rabbit); settings: compound 10.0 µM; accession and sequence are those of the human protein

Chain of LCK (human) (P06239 whole entry, looked up): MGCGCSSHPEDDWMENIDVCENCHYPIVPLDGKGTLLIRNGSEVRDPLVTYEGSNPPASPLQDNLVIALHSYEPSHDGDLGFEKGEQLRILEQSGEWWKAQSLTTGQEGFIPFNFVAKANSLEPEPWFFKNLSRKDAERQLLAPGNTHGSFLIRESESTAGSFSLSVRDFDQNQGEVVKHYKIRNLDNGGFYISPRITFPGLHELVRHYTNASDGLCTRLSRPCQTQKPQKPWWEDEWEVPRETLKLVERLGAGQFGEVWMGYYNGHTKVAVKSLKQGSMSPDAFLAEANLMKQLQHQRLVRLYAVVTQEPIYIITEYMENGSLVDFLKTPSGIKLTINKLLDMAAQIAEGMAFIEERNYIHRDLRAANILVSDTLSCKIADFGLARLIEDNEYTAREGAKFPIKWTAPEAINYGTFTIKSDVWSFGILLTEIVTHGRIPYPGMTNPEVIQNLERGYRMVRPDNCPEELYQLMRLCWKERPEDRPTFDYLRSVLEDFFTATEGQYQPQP
Chain of MAPK8 (human) (P45983 whole entry, looked up): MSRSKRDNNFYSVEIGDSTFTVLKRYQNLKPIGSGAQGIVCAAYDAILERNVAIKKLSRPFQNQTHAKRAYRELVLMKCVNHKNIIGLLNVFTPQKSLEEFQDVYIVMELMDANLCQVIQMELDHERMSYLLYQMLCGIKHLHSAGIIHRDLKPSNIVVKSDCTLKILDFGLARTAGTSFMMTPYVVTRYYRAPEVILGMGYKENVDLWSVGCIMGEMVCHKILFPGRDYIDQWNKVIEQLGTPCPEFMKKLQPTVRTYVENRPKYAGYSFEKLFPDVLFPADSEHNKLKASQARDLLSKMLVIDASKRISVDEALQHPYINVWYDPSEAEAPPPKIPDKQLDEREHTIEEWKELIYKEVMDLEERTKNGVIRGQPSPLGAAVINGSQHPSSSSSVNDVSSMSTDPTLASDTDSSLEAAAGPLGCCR
Chain of RPS6KB1 (human), P23443 [T412E] (P23443 whole entry T412E, looked up): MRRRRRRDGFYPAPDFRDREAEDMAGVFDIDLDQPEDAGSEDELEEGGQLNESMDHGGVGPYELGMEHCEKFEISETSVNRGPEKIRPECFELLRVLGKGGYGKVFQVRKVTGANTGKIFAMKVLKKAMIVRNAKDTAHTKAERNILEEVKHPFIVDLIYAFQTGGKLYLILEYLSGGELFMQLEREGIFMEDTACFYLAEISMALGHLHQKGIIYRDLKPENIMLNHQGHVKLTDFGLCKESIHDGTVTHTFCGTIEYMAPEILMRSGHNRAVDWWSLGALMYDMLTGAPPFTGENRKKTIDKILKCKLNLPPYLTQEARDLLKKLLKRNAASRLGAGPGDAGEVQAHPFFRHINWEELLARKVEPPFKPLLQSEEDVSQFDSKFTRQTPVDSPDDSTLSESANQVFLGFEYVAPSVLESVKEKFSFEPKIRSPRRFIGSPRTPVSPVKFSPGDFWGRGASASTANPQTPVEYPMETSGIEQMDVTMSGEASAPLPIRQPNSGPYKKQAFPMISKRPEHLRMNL
Chain of RPS6KA5 KD1 KD2 (human) (O75582 whole entry, looked up): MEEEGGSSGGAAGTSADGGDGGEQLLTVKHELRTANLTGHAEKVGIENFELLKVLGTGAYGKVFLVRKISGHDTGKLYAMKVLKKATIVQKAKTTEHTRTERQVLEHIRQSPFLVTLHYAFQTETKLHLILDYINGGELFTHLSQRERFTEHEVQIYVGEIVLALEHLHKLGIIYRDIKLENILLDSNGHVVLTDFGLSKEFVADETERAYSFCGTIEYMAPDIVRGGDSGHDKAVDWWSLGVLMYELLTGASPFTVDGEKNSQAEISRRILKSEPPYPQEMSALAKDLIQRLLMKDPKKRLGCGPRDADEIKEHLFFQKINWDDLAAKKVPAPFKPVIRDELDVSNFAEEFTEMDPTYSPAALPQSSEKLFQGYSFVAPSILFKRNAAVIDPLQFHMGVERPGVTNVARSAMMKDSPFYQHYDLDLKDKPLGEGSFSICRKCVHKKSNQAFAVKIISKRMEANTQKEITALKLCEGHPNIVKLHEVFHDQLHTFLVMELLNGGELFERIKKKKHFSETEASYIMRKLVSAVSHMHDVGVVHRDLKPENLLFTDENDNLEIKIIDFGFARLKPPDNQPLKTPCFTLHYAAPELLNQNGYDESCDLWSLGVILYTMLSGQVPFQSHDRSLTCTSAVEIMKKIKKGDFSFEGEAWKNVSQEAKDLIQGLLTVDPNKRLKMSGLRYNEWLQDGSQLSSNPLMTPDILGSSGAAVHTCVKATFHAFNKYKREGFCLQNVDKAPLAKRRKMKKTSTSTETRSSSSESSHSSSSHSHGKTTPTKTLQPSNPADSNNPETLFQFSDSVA
Chain of MAPKAPK2 (human) (P49137 whole entry, looked up): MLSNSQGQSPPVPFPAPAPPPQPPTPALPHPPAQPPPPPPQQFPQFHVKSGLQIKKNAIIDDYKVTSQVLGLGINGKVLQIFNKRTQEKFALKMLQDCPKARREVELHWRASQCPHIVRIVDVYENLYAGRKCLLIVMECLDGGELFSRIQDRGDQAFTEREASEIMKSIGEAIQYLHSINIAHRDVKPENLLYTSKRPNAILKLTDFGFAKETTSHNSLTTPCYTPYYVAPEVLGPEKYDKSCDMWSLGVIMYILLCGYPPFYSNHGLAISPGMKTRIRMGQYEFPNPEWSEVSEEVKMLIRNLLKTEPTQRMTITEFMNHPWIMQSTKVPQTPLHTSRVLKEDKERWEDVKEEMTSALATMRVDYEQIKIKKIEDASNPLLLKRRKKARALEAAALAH
Chain of GSK3B (human) (P49841 whole entry, looked up): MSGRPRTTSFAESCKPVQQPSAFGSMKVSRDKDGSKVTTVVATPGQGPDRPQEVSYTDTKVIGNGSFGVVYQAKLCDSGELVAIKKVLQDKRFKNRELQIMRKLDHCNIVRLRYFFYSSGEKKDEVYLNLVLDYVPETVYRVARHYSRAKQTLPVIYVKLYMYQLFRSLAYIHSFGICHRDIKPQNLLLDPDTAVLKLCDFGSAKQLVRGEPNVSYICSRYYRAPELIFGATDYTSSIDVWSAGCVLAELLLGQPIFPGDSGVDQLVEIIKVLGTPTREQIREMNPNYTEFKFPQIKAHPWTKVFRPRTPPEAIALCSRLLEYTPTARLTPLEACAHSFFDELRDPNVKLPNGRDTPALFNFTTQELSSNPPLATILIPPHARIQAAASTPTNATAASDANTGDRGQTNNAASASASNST
Chain of AKT1 (human) (P31749 whole entry, looked up): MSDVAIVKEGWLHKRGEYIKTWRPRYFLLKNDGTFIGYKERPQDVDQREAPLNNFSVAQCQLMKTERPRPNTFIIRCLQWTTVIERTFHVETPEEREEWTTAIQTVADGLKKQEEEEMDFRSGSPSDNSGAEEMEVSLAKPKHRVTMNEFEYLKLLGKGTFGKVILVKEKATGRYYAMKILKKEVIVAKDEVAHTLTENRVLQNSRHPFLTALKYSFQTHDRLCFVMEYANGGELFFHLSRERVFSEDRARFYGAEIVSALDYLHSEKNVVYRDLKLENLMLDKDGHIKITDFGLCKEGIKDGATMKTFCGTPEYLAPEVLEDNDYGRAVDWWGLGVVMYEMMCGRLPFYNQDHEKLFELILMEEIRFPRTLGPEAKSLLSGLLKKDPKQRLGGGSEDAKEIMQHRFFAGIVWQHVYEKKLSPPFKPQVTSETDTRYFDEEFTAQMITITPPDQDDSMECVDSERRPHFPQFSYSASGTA
Chain of MAPK12 (human) (P53778 whole entry, looked up): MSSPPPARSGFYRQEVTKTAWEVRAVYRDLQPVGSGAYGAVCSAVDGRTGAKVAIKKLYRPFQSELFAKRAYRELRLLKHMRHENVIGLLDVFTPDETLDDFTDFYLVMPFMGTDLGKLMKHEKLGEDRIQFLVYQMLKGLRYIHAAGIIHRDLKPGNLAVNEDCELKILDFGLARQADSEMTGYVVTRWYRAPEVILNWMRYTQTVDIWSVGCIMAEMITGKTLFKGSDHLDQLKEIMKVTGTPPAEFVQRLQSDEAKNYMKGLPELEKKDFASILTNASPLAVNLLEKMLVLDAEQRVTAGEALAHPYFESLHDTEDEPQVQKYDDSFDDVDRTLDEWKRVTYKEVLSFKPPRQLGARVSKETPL
Chain of MAPK14 (human) (Q16539 whole entry, looked up): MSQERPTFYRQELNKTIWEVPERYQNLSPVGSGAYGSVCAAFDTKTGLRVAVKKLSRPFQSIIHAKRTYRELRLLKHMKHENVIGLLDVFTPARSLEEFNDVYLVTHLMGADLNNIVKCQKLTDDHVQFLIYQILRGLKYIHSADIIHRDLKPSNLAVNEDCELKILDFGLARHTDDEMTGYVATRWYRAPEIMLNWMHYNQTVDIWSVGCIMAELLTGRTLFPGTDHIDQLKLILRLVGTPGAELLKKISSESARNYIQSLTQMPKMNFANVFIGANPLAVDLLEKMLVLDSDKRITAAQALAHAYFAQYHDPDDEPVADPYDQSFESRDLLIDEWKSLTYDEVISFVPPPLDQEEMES

SMILES: COC[C@H]1OC(=O)c2coc3c2[C@@]1(C)C1=C(C3=O)[C@@H]2CCC(=O)[C@@]2(C)C[C@H]1OC(C)=O
residual activity [1]: 96%
residual activity ([2]; compound 1.0 µM): 99%
residual activity ([3]; compound 1.0 µM): 98%
residual activity ([4]; compound 1.0 µM): 95%
residual activity [5]: 96%
residual activity ([6]; compound 1.0 µM): 74%
residual activity ([7]; compound 1.0 µM): 75%
residual activity [8]: 86%
residual activity ([9]; compound 1.0 µM): 97%
residual activity ([10]; compound 1.0 µM): 102%
residual activity [11]: 85%
IC50 [12]: 260 nM
residual activity ([13]; compound 1.0 µM): 88%
residual activity [14]: 0%
residual activity ([15]; compound 1.0 µM): 100%
residual activity ([16]; compound 1.0 µM): 91%
residual activity ([17]; compound 1.0 µM): 99%
residual activity ([18]; compound 1.0 µM): 106%
residual activity ([19]; compound 1.0 µM): 101%
residual activity [20]: 4%
residual activity [21]: 104%
residual activity [22]: 100%
residual activity [23]: 106%
residual activity [24]: 97%
residual activity [25]: 92%

residual activity [26]: 0%
SMILES: CCCCCCOC(=O)[C@@]1(O)C[C@H]2O[C@]1(C)n1c3ccccc3c3c4c(c5c6ccccc6n2c5c31)C(=O)NC4

SMILES: CO[C@H]1CC2CC[C@@H](C)[C@@](O)(O2)C(=O)C(=O)N2CCCC[C@H]2C(=O)OC([C@H](C)C[C@@H]2CC[C@@H](O)[C@H](OC)C2)CC(=O)[C@H](C)/C=C(\C)[C@@H](O)[C@@H](OC)C(=O)[C@H](C)C[C@H](C)/C=C/C=C/C=C/1C (some centres not stated)
residual activity [1]: 91%
residual activity ([2]; compound 1.0 µM): 102%
residual activity ([3]; compound 1.0 µM): 104%
residual activity ([27]; compound 1.0 µM): 89%
residual activity ([4]; compound 1.0 µM): 102%
residual activity [5]: 99%
residual activity ([7]; compound 1.0 µM): 100%
residual activity ([9]; compound 1.0 µM): 98%
residual activity ([10]; compound 1.0 µM): 125%
residual activity ([13]; compound 1.0 µM): 110%
residual activity ([15]; compound 1.0 µM): 99%
residual activity ([16]; compound 1.0 µM): 92%
residual activity ([17]; compound 1.0 µM): 104%
residual activity ([18]; compound 1.0 µM): 109%
residual activity ([19]; compound 1.0 µM): 108%
residual activity [22]: 103%
residual activity [23]: 106%
residual activity [24]: 104%

SMILES: CN[C@@H]1C[C@@H]2O[C@@](C)([C@@H]1OC)n1c3ccccc3c3c4c(c5c6ccccc6n2c5c31)C(=O)N[C@@H]4O
residual activity [1]: 31%
residual activity [28]: 69%
residual activity ([2]; compound 1.0 µM): 3%
residual activity ([3]; compound 1.0 µM): 77%
residual activity ([27]; compound 1.0 µM): 83%
residual activity ([4]; compound 1.0 µM): 7%
residual activity [5]: 90%
residual activity ([7]; compound 1.0 µM): 76%
residual activity ([29]; compound 1.0 µM): 91%
residual activity [8]: 92%
residual activity ([9]; compound 1.0 µM): 98%
residual activity ([10]; compound 1.0 µM): 90%
residual activity [11]: 77%
residual activity ([13]; compound 1.0 µM): 0%
residual activity ([15]; compound 1.0 µM): 1%
residual activity ([16]; compound 1.0 µM): 22%
residual activity ([17]; compound 1.0 µM): 19%
residual activity ([18]; compound 1.0 µM): 28%
residual activity [22]: 0%
residual activity [23]: 1%
residual activity [24]: 39%
residual activity [25]: 5%

residual activity [26]: 0%
SMILES: O=C1NCc2c1c1c3ccccc3[nH]c1c1[nH]c3ccccc3c21

SMILES: N#CC(=C(\N)Sc1ccccc1N)/C(C#N)=C(/N)Sc1ccccc1N
residual activity ([2]; compound 10.0 µM): 95%
residual activity ([3]; compound 10.0 µM): 107%
residual activity ([27]; compound 10.0 µM): 105%
residual activity ([4]; compound 10.0 µM): 87%
residual activity [30]: 114%
residual activity [31]: 81%
residual activity [32]: 79%
residual activity [33]: 89%
residual activity [34]: 92%
residual activity ([6]; compound 10.0 µM): 90%
residual activity ([7]; compound 10.0 µM): 100%
residual activity ([29]; compound 10.0 µM): 111%
residual activity ([9]; compound 10.0 µM): 96%
residual activity ([10]; compound 10.0 µM): 102%
residual activity ([13]; compound 10.0 µM): 99%
residual activity [26]: 101%
residual activity [35]: 85%
residual activity [36]: 95%
residual activity ([15]; compound 10.0 µM): 92%
residual activity ([16]; compound 10.0 µM): 94%
residual activity [37]: 88%
residual activity ([17]; compound 10.0 µM): 104%
residual activity ([18]; compound 10.0 µM): 92%
residual activity ([19]; compound 10.0 µM): 91%

residual activity [22]: 100%
SMILES: CN1C(=O)C(c2c[nH]c3ccccc23)=C(c2c[nH]c3ccccc23)C1=O

— the kinase profiling compilation of Christmann-Franck et al. (2016)
